Where only a bound is given, the exact number is not on record here.

The target of the assay is T1, TNFα / TNFα receptor (TNFα R1/Fc) (Homo sapiens, UniProt P01375).
T1 construct: purchased R&D Systems
T1 sequence (P01375 77-233 limits assumed, species assumed): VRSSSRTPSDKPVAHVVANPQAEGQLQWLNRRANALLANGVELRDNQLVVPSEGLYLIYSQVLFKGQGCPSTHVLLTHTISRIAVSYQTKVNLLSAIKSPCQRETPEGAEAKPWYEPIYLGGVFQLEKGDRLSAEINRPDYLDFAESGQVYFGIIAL
Briefly: Inhibition of binding of TNFα to the TNFα receptor (plate ELISA competition). Conditions: Table 2; read-out: Activity (IC50, inhibition of TNFα binding to TNFα R1/Fc). A digest of the protocol:
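Plates were coated with TNFα at 15 nM. Test compound and 8.33 nM receptor-Fc (PBST, 2% DMSO) were first mixed in solution for 30 min at room temperature, then transferred to the plates for another 30 min. Competition was read by absorbance at 450 nm after HRP anti-human IgG Fc detection with TMB.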
(In general: ELISA stands for enzyme-linked immunosorbent assay.)
As to `O=C1COc2ccc(cc2)C[C@@H](C(=O)O)NC(=O)[C@H](CCc2ccccc2)NC(=O)[C@@H](Cc2ccc(-c3ccccn3)cc2)NC(=O)[C@H](Cc2cccnc2)N1` [Compound 663], the IC50 is above 100 µM.

Turning to `O=C1COc2ccc(cc2)C[C@@H](C(=O)O)NC(=O)[C@H](CCc2ccccc2)NC(=O)[C@@H](Cc2ccc(-c3ccccn3)cc2)NC(=O)[C@H](Cc2ccncc2)N1` [Compound 664], the IC50 lay within 30 to 100 µM.

For `O=C1COc2ccc(cc2)C[C@@H](C(=O)O)NC(=O)[C@H](CCc2ccccc2)NC(=O)[C@@H](Cc2ccc(-c3cccnc3)cc2)NC(=O)[C@H](Cc2ccncc2)N1` [Compound 665], the IC50 fell in the range of 10 to 30 µM.

In the case of `O=C1COc2ccc(cc2)C[C@@H](C(=O)O)NC(=O)[C@H](CCc2ccccc2)NC(=O)[C@@H](Cc2ccc(-c3ccncc3)cc2)NC(=O)[C@H](Cc2ccncc2)N1` [Compound 666], the IC50 lay in the range of 10 to 30 µM.

In the case of `O=C1COc2ccc(cc2)C[C@@H](C(=O)O)NC(=O)[C@H](CCc2ccccc2)NC(=O)[C@@H](Cc2ccc(-c3ccccn3)cc2)NC(=O)[C@H](Cc2ccccn2)N1` [Compound 667], the IC50 is above 100 µM.

Consider `O=C1COc2ccc(cc2)C[C@@H](C(=O)O)NC(=O)[C@H](CCc2ccccc2)NC(=O)[C@@H](Cc2ccc(-c3cccnc3)cc2)NC(=O)[C@H](Cc2cccnc2)N1` [Compound 668], for which the IC50 is above 100 µM.

With `O=C1COc2ccc(cc2)C[C@H](C(=O)O)NC(=O)[C@H](CCc2ccccc2)NC(=O)[C@@H](Cc2ccc(-c3ccccc3)cc2)NC(=O)[C@H](Cc2cccs2)N1` [Compound 673], the IC50 was below 10 µM.

As for `O=C1COc2ccc(cc2)C[C@H](C(=O)O)NC(=O)[C@H](Cc2ccccc2)NC(=O)[C@@H](Cc2ccc(-c3ccccc3)cc2)NC(=O)[C@H](Cc2cccs2)N1` [Compound 675], the IC50 was above 100 µM.

As to `O=C1COc2ccc(cc2)C[C@@H](C(=O)O)NC(=O)[C@H](CCc2ccccc2)NC(=O)[C@@H](Cc2ccc(-c3ccccc3)cc2)NC(=O)[C@H](Cc2ccccc2F)N1` [Compound 677], the IC50 was below 10 µM.

Consider `O=C1COc2ccc(cc2)C[C@@H](C(=O)O)NC(=O)[C@H](CCc2ccccc2)NC(=O)[C@@H](Cc2ccc(-c3ccccc3)cc2)NC(=O)[C@H](Cc2ccc(F)cc2)N1` [Compound 679], for which the IC50 was below 10 µM.

On to `COc1cccc(C[C@@H]2NC(=O)COc3ccc(cc3)C[C@@H](C(=O)O)NC(=O)[C@H](CCc3ccccc3)NC(=O)[C@@H](Cc3ccc(-c4ccccc4)cc3)NC2=O)c1` [Compound 680], for which the IC50 is below 10 µM.

On to `COc1ccc(C[C@@H]2NC(=O)COc3ccc(cc3)C[C@@H](C(=O)O)NC(=O)[C@H](CCc3ccccc3)NC(=O)[C@@H](Cc3ccc(-c4ccccc4)cc3)NC2=O)cc1` [Compound 681], for which the IC50 was below 10 µM.

Take `O=C1COc2ccc(cc2)C[C@@H](C(=O)O)NC(=O)[C@H](CCc2ccccc2)NC(=O)[C@@H](Cc2ccc(-c3ccccc3)cc2)NC(=O)[C@H](Cc2ccc(-c3ccncc3)cc2)N1` [Compound 684]: the IC50 is below 10 µM.

For the compound `O=C1COc2ccc(cc2)C[C@@H](C(=O)O)NC(=O)[C@H](CCc2ccccc2)NC(=O)[C@@H](Cc2ccc(-c3ccccc3)cc2)NC(=O)[C@H](Cc2ccc(OCc3ccccc3)cc2)N1` [Compound 685], the IC50 is below 10 µM.

Take `O=C1COc2ccc(cc2)C[C@@H](C(=O)O)NC(=O)[C@H](CCc2ccccc2)NC(=O)[C@@H](Cc2ccc(-c3ccccc3)cc2)NC(=O)[C@H](Cc2ccc(O)cc2)N1` [Compound 686]: the IC50 was below 10 µM.

As for `O=C1COc2ccc(cc2)C[C@@H](C(=O)O)NC(=O)[C@H](CCc2ccccc2)NC(=O)[C@@H](Cc2ccc(-c3ccccc3)cc2)NC(=O)[C@H](Cc2ccco2)N1` [Compound 687], the IC50 is below 10 µM.

In the case of `O=C1COc2ccc(cc2)C[C@@H](C(=O)O)NC(=O)[C@H](CCc2ccccc2)NC(=O)[C@@H](Cc2ccc(-c3ccccc3)cc2)NC(=O)[C@H](Cc2ccccc2C(F)(F)F)N1` [Compound 689], the IC50 is below 10 µM.

The values are drawn from patent publication US8338565B2, “Macrocyclic compounds for inhibition of tumor necrosis factor alpha” (Ensemble Therapeutics Corporation, priority 2008, dated 2012).
